The data set has as its system red blood cells. The following applies: riboflavin and visible light, FIG. 4.

The structures appear in SMILES notation.

Description: Red blood cells were suspended in AS3 during a pathogen reduction procedure using riboflavin and visible light. […] AS3 contains sodium chloride, dextrose, adenine, sodium phosphate, sodium citrate and citric acid.

`Cc1cc2nc3c(=O)[nH]c(=O)nc-3n(CC(O)C(O)C(O)CO)c2cc1C` (stereo not shown) [riboflavin, 7,8-dimethyl-10-ribityl isoalloxazine]: the “% hemolysis of red blood cells” value is recorded as “less than 2%”.
